Experimental data from patent US6623933B1 (priority 1999, dated 2003).
Values joined by “and” are separate entries in the source; they are usually repeats but may differ in a detail not shown here. Equal entries are not always repeated. Structures can show the parent of a compound that is named as a salt.

Assays:
[1] = test system: primary cultures of rat hippocampal neurons; experiment: NMDA-induced increase in [Ca2+]i, Fluo-3 AM; assay type: cell-based; details: 5 μM NMDA; steroid 100 μM (3α5β 50 μM)
Experimental: Principally neuronal cultures were prepared from hippocampal tissue of fetal Sprague-Dawley rats on day 18 of embryonic development, as previously described (Brewer et al., Brain Research 494: 65-74 (1989)). Briefly, hippocampal cells were dissociated by trituration in Ca^2+/Mg^2+-free Hank's basic salt solution (Gibco) supplemented with 4.2 mM bicarbonate, 1 mM sodium pyruvate, 20 mM HEPES, 3 mg/ml bovine serum albumin (BSA). Dissociated cells were then pelleted by centrifugation (500×g, 4 min). […] Cells were then plated onto poly-L-lysine-coated 24-well culture dishes (Nunclon) at a density of 15,000 cell/cm^2 and maintained in a humidified atmosphere containing 5% CO2/95% air at 37° C. After 48 h, nonneuronal cell division was inhibited by a 48 h exposure to 1 μM cytosine arabinoside. Cultures were subsequently maintained in serum-free DMEM plus defined components and were used for experiments 16 to 24 days after plating.
DMSO was also added to controls to maintain a constant final DMSO concentration of […].
All data are expressed as mean±standard error of the mean. Statistical significance was evaluated using 95% confidence limits unless otherwise noted.

[2] = target: T1, wild-type NR1a/NR2A (Rattus norvegicus, UniProt P35439+Q00959); experiment: NMDA-induced currents, Xenopus oocytes, Example 5; assay type: cell-based; details: 100 uM steroid, 300 uM NMDA, 50 uM Glycine
T1 construct: expressed in transfected cells; host or cells: Xenopus laevis oocytes injected with in vitro transcribed mRNA
Experimental: (§5) Plasmids were linearized with appropriate restriction enzyme prior to in vitro transcription using the Message Machine kit (Ambion, Inc., Austin, Tex.).
Female, oocyte positive Xenopus laevis frogs were purchased from Xenopus I (Dexter, Mich). […] Oocytes were injected with 50 nL of RNA solutions using an electronic microinjector (Drummond Inc., Broomall, Pa.). […] The injected oocytes were used for experiments following 1-5 days of incubation in Barth's solution at 18-20° C.
The microelectrodes were fabricated with a programmed puller (Sutter Instrument Co., Calif.) from borosilicate glass capillaries and were filled with 3 M KCl solution. The resistance of filled microelectrodes was in the range of 1-3 MΩ. […] If not mentioned otherwise, during data acquisition oocytes were clamped at a holding potential of −70 mV. The membrane current was filtered at 500 Hz and sampled at 100 Hz. Drugs were applied using a gravity driven external perfusion system. The working ,volume of the recording chamber was 30 μl and the rate of the perfusion was 50 μl/sec. The drug application lasted 10 sec and was followed by a 60 sec wash. The data acquisition and external perfusion control were done using the SuperScopeII software package (GW Instruments, Mass.). All experiments were performed at room temperature (22-24° C.). […] The data are presented as mean±S.E.M. with number of experiments in parentheses.

[3] = target: NR1/NR2A (NR1100) (Rattus norvegicus, UniProt P35439+Q00959); experiment: cell-based
Description: (§6) Plasmids containing the NR1100 (NR1G) and NR2A cDNA inserts were kindly provided by Dr. Nakanishi (Kyoto University Faculty of Medicine, Kyoto, Japan). Plasmids containing the NR2B, NR2C and NR2D cDNA inserts were kindly provided by Dr. P. Seeburg (Heidelberg University, Heidelberg, Germany). Plasmids were linearized with appropriate restriction enzyme prior to in vitro transcription using the Message Machine kit (Ambion, Inc., Austin, Tex.).
(§7) Female, oocyte-positive Xenopus laevis frogs were purchased from Xenopus I (Dexter, Mich.). […] Oocytes were injected with 50 nL of RNA solutions using an electronic microinjector (Drummond Inc., Broomall, Pa.). […] The injected oocytes were used for experiments following 1-5 days of incubation in Barth's solution at 18-20° C.
(§8) The microelectrodes were fabricated from borosilicate glass capillaries with a programmed puller (Sutter Instrument Co., Calif.). Microelectrode resistance was 1-3 MΩ_when filled with 3 M KCl.
(§9) Except where otherwise stated, oocytes were clamped at a holding potential of −70 mV during data acquisition. The membrane current was filtered at 500 Hz and sampled at 100 Hz. Drugs were applied using a gravity-driven external perfusion system. The working volume of the recording chamber was 30 μl and the rate of the perfusion was 50 μl/sec. The drug application lasted 10 sec and was followed by 60 s wash. Data acquisition and external perfusion were controlled using custom-written software implemented in the SuperScope II development environment (GW Instruments, Mass.). All experiments were performed at room temperature of 22-24° C. Peak or steady-state current measurements were normalized and expressed as a fraction of the peak or steady-state control current measurements, which were performed before and after application of every single concentration of agonists or steroids.
(§10) Concentration-response data were analyzed by nonlinear regress ion using the logistic equation Response=Emax/(1+(EC50/c)^nH), where c is concentration, Emaxis the maximum response, nHis the Hill coefficient. The data are presented as mean±SEM. EC50values are averaged as logarithms (De Lean et al., Am. J. Physiol. 235: E97-E102 (1978))±the SEM of the log EC50. […] The pooled data were simultaneously fitted to the logistic equation, either with Emax and EC50 constrained to be identical in the presence and absence of PS, or allowing one or both to vary independently. […] This was regarded as indicating a significant treatment effect of PS, but the change in EC50and Emaxwas not considered significant. […] No attempt was made to test the generally small changes in nHfor statistical significance.

[4] = target: NR1/NR2B (NR1100) (Rattus norvegicus, UniProt P35439+Q00960); experiment: cell-based
Description: as §6, §7, §8, §9, §10

[5] = target: NR1/NR2C (NR1100) (Rattus norvegicus, UniProt P35439+Q00961); experiment: cell-based
Sequence of NR1/NR2C (NR1100) (Q00961 20-1237, other chains not shown): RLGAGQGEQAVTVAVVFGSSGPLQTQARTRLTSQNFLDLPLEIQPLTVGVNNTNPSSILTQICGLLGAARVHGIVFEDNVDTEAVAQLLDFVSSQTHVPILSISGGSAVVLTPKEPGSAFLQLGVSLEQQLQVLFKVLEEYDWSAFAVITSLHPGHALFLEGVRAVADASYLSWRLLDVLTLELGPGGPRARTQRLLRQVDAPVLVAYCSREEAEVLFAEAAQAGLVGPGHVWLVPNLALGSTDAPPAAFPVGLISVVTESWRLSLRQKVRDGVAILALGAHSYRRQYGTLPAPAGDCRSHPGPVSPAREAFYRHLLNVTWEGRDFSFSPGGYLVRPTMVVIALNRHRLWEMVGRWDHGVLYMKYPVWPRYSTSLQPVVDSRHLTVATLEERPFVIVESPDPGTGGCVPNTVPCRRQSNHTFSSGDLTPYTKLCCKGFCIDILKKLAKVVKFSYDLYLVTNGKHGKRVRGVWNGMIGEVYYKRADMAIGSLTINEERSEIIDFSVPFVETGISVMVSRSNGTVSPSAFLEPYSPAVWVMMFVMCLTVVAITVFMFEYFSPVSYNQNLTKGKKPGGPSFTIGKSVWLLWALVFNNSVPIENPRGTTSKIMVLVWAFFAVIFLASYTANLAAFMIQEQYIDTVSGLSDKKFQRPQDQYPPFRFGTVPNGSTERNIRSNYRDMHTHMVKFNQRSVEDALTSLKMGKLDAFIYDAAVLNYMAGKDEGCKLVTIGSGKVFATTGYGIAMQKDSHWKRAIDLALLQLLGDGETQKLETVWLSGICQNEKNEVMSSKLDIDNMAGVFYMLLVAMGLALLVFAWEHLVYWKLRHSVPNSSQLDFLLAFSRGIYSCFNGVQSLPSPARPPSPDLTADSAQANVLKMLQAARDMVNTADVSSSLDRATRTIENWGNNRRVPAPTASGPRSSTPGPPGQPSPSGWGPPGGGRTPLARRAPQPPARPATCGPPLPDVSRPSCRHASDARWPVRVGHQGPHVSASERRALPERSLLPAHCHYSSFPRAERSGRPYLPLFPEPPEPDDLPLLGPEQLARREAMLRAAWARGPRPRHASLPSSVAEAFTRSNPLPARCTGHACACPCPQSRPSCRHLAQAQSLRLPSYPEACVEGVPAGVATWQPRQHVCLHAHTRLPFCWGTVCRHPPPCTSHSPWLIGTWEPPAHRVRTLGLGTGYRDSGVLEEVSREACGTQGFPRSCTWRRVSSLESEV

[6] = target: T2, NR1011/NR2B (Rattus norvegicus, UniProt P35439+Q00960); experiment: NMDA receptor currents in Ba-Ringer, Xenopus oocytes, Example 3; assay type: cell-based
T2 construct: expressed in transfected cells; host or cells: Xenopus oocytes

[7] = target: T3, NR1001/NR2B (Rattus norvegicus, UniProt P35439+Q00960); experiment: as above; assay type: cell-based
T3 construct: expressed in transfected cells; host or cells: Xenopus oocytes

[8] = test system: NR1100/NR2A; experiment: NMDA-induced currents of NR1 splice variants, Xenopus oocytes, Example 4; assay type: cell-based; details: 100 μM PS
Experimental: (§1) Overnight cultures (500 ml) of transformed bacterial cells were prepared in order to grow sufficient quantities for maxiprep isolation of the plasmid CDNA. Maxipreps were done using a Sorvall RC-5B ultracentrifuge, Qiagen columns and cDNA was quantitated with spectrophotometry (OD260 and OD260/ OD280 ratio). The resulting plasmid cDNA was linearized by digestion with an appropriate restriction enzyme that cleaves distal to the cDNA insert (XhoI for NR2A or NotI for NR1100, NR1000, NR1111, NR1011, NR1101, NR1001). […] The samples were stored at −20° C. until use.
(§2) In vitro transcription was performed using the Ambion mMessage mMachine kit with T7 (NR1100, NR1000, NR1111, NR1011, NR1101, NR1001) RNA polymerase. The reaction was assembled on ice and allowed to incubate at 37° C. for 1-2 hr. The resulting mRNA was precipitated (reaction termination) using lithium chloride/5 mM EDTA solution and dissolved in RNase-free H2O. The concentration (OD260) and OD260/OD280 ratio (should be more than 1.5) was determined by spectrophotometer. The yield of mRNA was generally 15-30 μg. mRNA was stored at −80° C. until use.
(§3) Intracellular recording microelectrodes were fabricated from 100 μl borosilicate glass disposable micropipettes using a 2-step protocol on a standard horizontal Flaming-Brown micropipette puller.

[9] = target: T4, NR1/NR2B (Rattus norvegicus, UniProt P35439+Q00960); experiment: NMDA-induced membrane currents, Xenopus oocytes, Example 7; assay type: cell-based
T4 construct: expressed in transfected cells; host or cells: Xenopus oocytes injected with mRNA
Experimental: as §5
(§11) Oocytes were injected with 50 nL of RNA solutions using an electronic microinjector (Drummond Inc., Broomall, Pa.). […] The injected oocytes were used for experiments following 1-5 days of incubation in Barth's solution at 18-20° C.
(§12) The microelectrodes were fabricated with a programmed puller (Sutter Instrument Co., Calif.) from borosilicate glass capillaries and were filled with 3 M KCl solution. The resistance of filled microelectrodes was in the range of 1-3 MΩ. […] If not mentioned otherwise, during data acquisition oocytes were clamped at a holding potential of −70 mV. The membrane current was filtered at 500 Hz and sampled at 100 Hz. Drugs were applied using a gravity driven external perfusion system. The working ,volume of the recording chamber was 30 μl and the rate of the perfusion was 50 μl/sec. The drug application lasted 10 sec and was followed by a 60 sec wash. The data acquisition and external perfusion control were done using the SuperScopeII software package (GW Instruments, Mass.). […] Peak or steady-state current measurements were normalized and expressed as a fraction of the peak or steady-state control current measurements, which were performed before and after application of every single consentration of agonist or steroid. […]

[10] = target: T5, NR1/NR2C (Rattus norvegicus, UniProt P35439+Q00961); experiment: as above; assay type: cell-based
T5 construct: expressed in transfected cells; host or cells: Xenopus oocytes injected with mRNA
T5 sequence (Q00961 20-1237, other chains not shown): as above
Experimental: as §5, §11, §12

[11] = target: T6, NR1/NR2D (Rattus norvegicus, UniProt P35439+Q62645); experiment: as above; assay type: cell-based
T6 construct: expressed in transfected cells; host or cells: Xenopus oocytes injected with mRNA
T6 sequence (Q62645 28-1323, other chains not shown): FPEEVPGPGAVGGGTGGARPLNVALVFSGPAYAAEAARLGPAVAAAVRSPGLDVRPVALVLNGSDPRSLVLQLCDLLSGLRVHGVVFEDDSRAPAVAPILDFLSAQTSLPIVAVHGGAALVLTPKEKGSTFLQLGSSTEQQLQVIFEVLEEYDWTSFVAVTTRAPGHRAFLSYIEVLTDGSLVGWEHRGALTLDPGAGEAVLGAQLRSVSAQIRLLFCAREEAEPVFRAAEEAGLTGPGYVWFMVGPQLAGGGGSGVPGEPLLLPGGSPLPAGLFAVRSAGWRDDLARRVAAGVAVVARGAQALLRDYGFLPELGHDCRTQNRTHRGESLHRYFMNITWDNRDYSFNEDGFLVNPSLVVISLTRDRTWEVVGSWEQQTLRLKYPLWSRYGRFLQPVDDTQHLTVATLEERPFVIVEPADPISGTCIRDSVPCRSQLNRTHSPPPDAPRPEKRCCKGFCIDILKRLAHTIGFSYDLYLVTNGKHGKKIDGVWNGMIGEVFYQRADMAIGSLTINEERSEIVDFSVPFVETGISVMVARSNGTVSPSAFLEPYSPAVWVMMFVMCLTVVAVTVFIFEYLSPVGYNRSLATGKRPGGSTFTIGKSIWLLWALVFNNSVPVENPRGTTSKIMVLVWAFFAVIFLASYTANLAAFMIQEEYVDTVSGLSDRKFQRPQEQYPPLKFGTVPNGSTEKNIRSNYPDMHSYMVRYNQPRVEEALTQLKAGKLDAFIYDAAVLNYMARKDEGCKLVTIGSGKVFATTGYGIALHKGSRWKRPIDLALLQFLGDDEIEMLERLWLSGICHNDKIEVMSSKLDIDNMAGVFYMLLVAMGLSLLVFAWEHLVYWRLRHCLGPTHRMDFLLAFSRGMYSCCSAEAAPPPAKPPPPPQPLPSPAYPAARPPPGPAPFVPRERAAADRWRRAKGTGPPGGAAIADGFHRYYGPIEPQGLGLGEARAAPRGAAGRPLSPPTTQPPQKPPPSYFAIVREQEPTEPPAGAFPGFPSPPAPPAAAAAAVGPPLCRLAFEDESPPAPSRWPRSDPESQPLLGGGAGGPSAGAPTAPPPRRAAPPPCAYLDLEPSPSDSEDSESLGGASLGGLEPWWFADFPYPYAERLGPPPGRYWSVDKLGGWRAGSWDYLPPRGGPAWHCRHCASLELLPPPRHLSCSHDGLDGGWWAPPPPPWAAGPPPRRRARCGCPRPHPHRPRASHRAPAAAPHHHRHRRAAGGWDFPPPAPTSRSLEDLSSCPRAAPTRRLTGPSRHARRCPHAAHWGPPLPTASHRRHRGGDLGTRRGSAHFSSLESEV
Experimental: as §5, §11, §12

[12] = target: T7, NR1011/NR2Bwt (Rattus norvegicus, UniProt P35439+Q00960); experiment: NR2 chimera study, Xenopus oocytes, Example 7; assay type: cell-based; details: 100 μM PS; 300 μM NMDA; 50 μM Glycine
T7 construct: expressed in transfected cells; host or cells: Xenopus oocytes
Description: (§4) The chimeric receptors were generated by first introducing a series of silent restriction sites in both the NR2B and NR2D cDNA. The chimeric cDNAs were then constructed by replacing corresponding regions of one cDNA with that of the other. The silence site mutations were generated by a method involving PCR. […] This cassette was then ligated into the cDNA cut with the same two restriction enzymes.

[13] = target: T8, NR1011/NR2Dwt (Rattus norvegicus, UniProt P35439+Q62645); experiment: NR2 chimera study, Xenopus oocytes, Example 7; assay type: cell-based; details: 100 μM PS; 300 μM NMDA; 50 μM Glycine
T8 construct: expressed in transfected cells; host or cells: Xenopus oocytes
T8 sequence (Q62645 28-1323, other chains not shown): as above
Description: as §4

[14] = target: NR1001/NR2A (Rattus norvegicus, UniProt P35439+Q00959); experiment: NMDA-induced currents of NR1 splice variants, Xenopus oocytes, Example 4; assay type: cell-based; design: expressed in transfected cells; host or cells: Xenopus oocytes injected with NR1001 and NR2A mRNA; details: NR1001/2A; 100 μM PS; 200 μM NMDA+10 μM glycine
Sequence of NR1001/NR2A (Q00959 23-1464, other chains not shown): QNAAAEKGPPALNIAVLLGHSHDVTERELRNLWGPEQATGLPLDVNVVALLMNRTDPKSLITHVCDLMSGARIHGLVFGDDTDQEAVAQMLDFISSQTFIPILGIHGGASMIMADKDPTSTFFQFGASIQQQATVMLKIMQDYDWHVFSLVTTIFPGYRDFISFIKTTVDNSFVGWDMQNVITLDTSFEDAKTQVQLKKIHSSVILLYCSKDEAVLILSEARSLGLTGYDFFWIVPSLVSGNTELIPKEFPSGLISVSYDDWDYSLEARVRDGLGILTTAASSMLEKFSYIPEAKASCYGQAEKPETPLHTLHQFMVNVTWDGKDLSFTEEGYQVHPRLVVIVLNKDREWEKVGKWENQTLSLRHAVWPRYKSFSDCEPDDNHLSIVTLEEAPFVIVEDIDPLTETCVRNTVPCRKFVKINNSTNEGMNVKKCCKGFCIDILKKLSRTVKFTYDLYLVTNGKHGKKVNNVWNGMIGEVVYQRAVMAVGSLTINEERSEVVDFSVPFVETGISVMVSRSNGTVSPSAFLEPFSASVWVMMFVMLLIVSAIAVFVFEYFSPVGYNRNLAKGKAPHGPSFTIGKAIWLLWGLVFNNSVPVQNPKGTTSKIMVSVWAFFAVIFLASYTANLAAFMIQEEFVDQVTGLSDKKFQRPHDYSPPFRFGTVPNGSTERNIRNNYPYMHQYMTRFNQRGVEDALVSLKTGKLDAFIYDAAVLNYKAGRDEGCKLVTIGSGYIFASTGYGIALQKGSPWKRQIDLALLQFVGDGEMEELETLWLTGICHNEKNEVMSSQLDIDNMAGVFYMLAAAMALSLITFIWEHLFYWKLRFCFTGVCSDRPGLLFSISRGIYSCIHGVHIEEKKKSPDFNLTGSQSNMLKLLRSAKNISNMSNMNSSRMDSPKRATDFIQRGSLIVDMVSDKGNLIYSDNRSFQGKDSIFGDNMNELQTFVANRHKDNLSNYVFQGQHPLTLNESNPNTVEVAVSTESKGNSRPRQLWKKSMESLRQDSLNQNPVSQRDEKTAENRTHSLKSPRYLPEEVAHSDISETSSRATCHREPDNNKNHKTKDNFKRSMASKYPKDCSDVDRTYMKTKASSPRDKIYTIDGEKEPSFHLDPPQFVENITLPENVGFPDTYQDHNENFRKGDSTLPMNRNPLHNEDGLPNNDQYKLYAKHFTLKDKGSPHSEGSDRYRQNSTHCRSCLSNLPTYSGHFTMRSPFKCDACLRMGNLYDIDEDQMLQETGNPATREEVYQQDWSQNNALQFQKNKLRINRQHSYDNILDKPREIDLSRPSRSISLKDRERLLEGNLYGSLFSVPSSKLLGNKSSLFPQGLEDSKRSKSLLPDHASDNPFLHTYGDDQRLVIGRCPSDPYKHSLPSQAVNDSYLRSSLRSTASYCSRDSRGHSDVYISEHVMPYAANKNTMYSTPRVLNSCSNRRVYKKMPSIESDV
Experimental: as §1, §2, §3

[15] = target: NR1100/NR2A (Rattus norvegicus, UniProt P35439+Q00959); experiment: as above; assay type: cell-based; design: expressed in transfected cells; host or cells: Xenopus oocytes co-injected with NR1100 and NR2A cRNA; details: NR1100/2A; 100 μM PS; 200 μM NMDA+10 μM glycine
Experimental: as §1, §2, §3

[16] = read-out: 3α5βS Emax (% Change)
[17] = 100 μM PS, […] μM NMDA, 10 μM glycine

In the case of `CC(=O)[C@H]1CC[C@H]2[C@@H]3CC[C@@H]4C[C@H](OS(=O)(=O)O)CC[C@]4(C)[C@H]3CC[C@]12C` [3α5βS, 3α5β-pregnanolone sulfate], the “reduction of NMDA-induced rise in [Ca2+]i” value [1] is reported as 32±5%, the “percent decrease in maximum inward current” value [2] is reported as 45.49±5.76% and the EC50 [3] is reported as 62 µM. It also gave an Emax [3, 16] of -81 ± 5%, an EC50 [4] of 38 µM and an Emax [4, 16] of -82 ± 1%. For the same compound, the EC50 [5] was 12 µM and the Emax [5, 16] was -99 ± 2%.
In the case of pregnenolone sulfate [PS], the “PS Emax” value [6] is reported as 0.78 ± 0.14, the “PS nHill” value [6] is reported as 1.29 ± 0.19 and the “PS Emax” value [7] is reported as 0.63 ± 0.07. For the same compound, the “PS nHill” value [7] was 1.34 ± 0.17, the “difference in mrc between NR1000/NR2A and NR1100/NR2A” value [8] was 1.3 fold and the “potentiation of membrane current” value [9, 17] was 95±6%. The maximum potentiation ([9]; PS 0.5 to 200 μM) was 119±9%, the “inhibition of NMDA-induced membrane currents” value [10, 17] was 32±3% and the maximum inhibition ([10]; PS 0.5 to 200 μM) was 63±9%. For the same compound, the “inhibition of NMDA-induced membrane currents” value ([11]; 100 μM PS, 10 μM NMDA, 10 μM glycine) was 29±2%, the maximum inhibition ([11]; PS 0.5 to 200 μM) was 70±6% and the “potentiation of inward current” value [12] was 78.36±7.89%. The “inhibition of inward current” value [13] was 45.18±2.62%, the “maximum relative current (MRC)” value [14] was 1.73 and 1.72 and the “maximum relative current (MRC)” value [15] was 1.73.
